The nature of one experiment: NMDA-induced convulsions. The experiment is classed as in vivo, mice. To be noted: Mus musculus, ip; read-out: ED50 in the NMDA test.
A further experiment is described as follows: PTZ-induced convulsions. Format: in vivo, mice. To be noted: Mus musculus, ip; read-out: ED50 in the PTZ test.
The target of another experiment is NMDA receptor. Briefly: [3H]-(+)-MK-801 binding to rat cortical membranes. The method, then:
Male Sprague-Dawley rats (200-250 g) were decapitated and their brains were removed rapidly. The cortex was dissected and homogenized in 20 volumes of ice-cold 0.32 M sucrose using a glass-Teflon homogenizer. The homogenate was centrifuged at 1000 ×g for 10 minutes. The pellet was discarded and the supernatant centrifuged at 20,000 ×g for 20 minutes. The resulting pellet was re-suspended in 20 volumes of distilled water and centrifuged for 20 minutes at 8000 ×g. Then the supernatant and the buffy coat were centrifuged three times (48,000 ×g for 20 minutes) in the presence of 50 mM Tris-HCl, pH 8.0. All centrifugation steps were carried out at 4° C. After resuspension in 5 volumes of 50 mM Tris-HCl, pH 8.0 the membrane suspension was frozen rapidly at -80° C. On the day of assay the membranes were thawed and washed four times by resuspension in 50 mM Tris-HCl, pH 8.0 and centrifugation at 48,000 ×g for 20 minutes. The final pellet was suspended in assay buffer. The amount of protein in the final membrane preparation was determined according to the method of Lowry with some modifications. The final protein concentration used for our studies was between 250-500 μg/ml.
Membranes were re-suspended and incubated in 50 mM Tris-HCl, pH 8.0. […] Incubations were terminated using a Millipore filter system. The samples were rinsed three times with 2.5 ml ice cold assay buffer over glass fiber filters obtained from Schleicher & Schuell under a constant vacuum. Filtration was performed as rapidly as possible. Following separation and rinse, the filters were placed into scintillation liquid (5 ml; Ultima Gold) and radio activity retained on the filters was determined with a conventional liquid scintillation counter (Hewlett Packard, Liquid Scintillation Analyser).
IC50 s in patch clamp, excitotoxicity, and binding studies were calculated according to the four parameter logistic equation using the Grafit computer program (Erithacus Software, England). Ki value for binding studies were then determined according to Cheng and Prusoff. Binding values presented are means±SEM of 3-5 determinations (each performed in duplicate). […] Pearson product moment correlation analysis (Sigma Stat, Jandel Scientific) was used to compare in vitro potencies and in vivo anticonvulsant activity.

In general, ED50 refers to the dose that gives a 50% effect, or the effect in half of the subjects. Usually Ki stands for a measure of affinity in units of concentration, obtained from inhibition or displacement. For orientation: IC50 means the midpoint of a concentration-inhibition curve.

As to `CC1(C)CC(C)(C)CC(C)(N)C1` [Mrz 2/579, 1-amino-1,3,3,5,5-pentamethylcyclohexane], the ED50 was found to be 3.7 mg/kg in the experiment “NMDA-induced convulsions” and 5.5 mg/kg in “PTZ-induced convulsions”. Further, at NMDA receptor (read-out: MK-801 Ki, Table 9, Cheng-Prusoff with Kd for MK-801 of […]), the Ki turned out to be 1470 nM. The IC50 at NMDA receptor (read-out: [3H] MK-801 IC50, Table 7, footnote calls the values Ki) was 1900 nM.

For the origin of these results see US6034134A, “1-Amino-alkylcyclohexane NMDA receptor antagonists” (Merz + Co. GmbH & Co., priority 1998, dated 2000).
